Data taken from patent publication US10174013B2, “Benzimidazole derivatives as kinase inhibitors” (SELVITA S.A., priority 2012, dated 2019).

Columns and labels:
FLT3wt = FLT3wt (Homo sapiens (Human), UniProt P36888); assay: ADP-Glo Kinase Assay, Flt3 wt; assay type: biochemical; settings: 1 μM compound; read-out: Flt3wt % INH (1 μM)
Procedure, shortened: (§1)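 Compounds were diluted in assay buffer to 1000 nM and incubated with kinase, substrate and ATP at apparent Km. Remaining ATP was depleted, ADP converted to ATP and detected by luciferase; percent inhibition came from normalized luminescence.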

Pim-1 = Pim-1 (Homo sapiens (Human), UniProt P11309); assay: ADP-Glo Kinase Assay, Pim-1; assay type: biochemical; settings: 1 μM compound; read-out: Pim-1 % INH (1 μM)
Sequence of Pim-1 (P11309 whole entry): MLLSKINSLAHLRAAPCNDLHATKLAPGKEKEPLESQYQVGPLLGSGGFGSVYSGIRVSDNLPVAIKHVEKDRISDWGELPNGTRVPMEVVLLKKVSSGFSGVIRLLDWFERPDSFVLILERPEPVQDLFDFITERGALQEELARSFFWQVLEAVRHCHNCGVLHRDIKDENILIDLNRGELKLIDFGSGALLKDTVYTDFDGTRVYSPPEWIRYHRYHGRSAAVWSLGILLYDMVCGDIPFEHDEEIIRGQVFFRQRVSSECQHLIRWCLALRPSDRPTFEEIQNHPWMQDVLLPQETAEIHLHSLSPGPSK
Procedure, shortened: as §1

CDK2/E = CDK2/E (Homo sapiens (Human), UniProt P24941); assay: ADP-Glo Kinase Assay, CDK2/E; assay type: biochemical; settings: 1 μM compound; read-out: CDK2/E % INH (1 μM)
Procedure, shortened: as §1

MOLM13 cells = assay: Growth inhibition, MTS assay, MOLM13; assay type: cell-based, Human; settings: Homo sapiens, MOLM-13; 72 hours, MTS cell viability; read-out: MOLM 13 ED50
Excerpt: (§2) The following cell lines, were obtained and used in tests as outlined below: • Human myelomonocytic, biphenotypic leukemia MV4-11 cells (harboring a Flt3-ITD mutation); • Human Acute Myeloid Leukemia MOLM16 cells; • Human Acute Myeloid Leukemia MOLM13 cells (harboring a Flt3-ITD mutation); • Human Myeloid Leukemia KG-1 cells; • Human erythroleukemia HEL92 cells; • Human mantle cell lymphoma Jeko-1 cells; • Human hepatocellular carcinoma HepG2 cells; and • Human colon adenocarcinoma SW-480 cells.
(§3) The assays were carried out according to the following protocol, which is described as an example for the MV4-11 cells:
(§4) Ten thousand MV4-11 cells were inoculated into each well of a 96-well microplate (manufactured by Corning Corp.) using Iscove's MDM medium (culture medium) containing 10% fetal calf serum (FCS). The same day, a dimethyl sulfoxide (DMSO) solution of each test compound prepared in a concentration of 10 mmol/L was further diluted with DMSO to the desired concentrations (0.1, 0.5, 1, 2.5, 5 and 10 micromol/L), and the diluted solution was added to each well. The individual wells were further cultured in 5% carbon dioxide at 37° C. for 72 hours. […] Briefly, 10 μl MTS (3-(4,5-Dimethyl-2-thiazolyl)-5-(carboxymethoxyphenyl)-2-(4-sulfophenyl)-2H-tetrazolium was added to each well, and culturing was performed in 5% carbon dioxide at 37° C. for 2 hours. After this incubation and using a microplate spectrophotometer (Synergy 2 multi-mode microplate reader (BioTek)), the absorbance of each well was measured at 490 nm. The value for cells not incubated with a test compound was designated as 100%. By comparing these values with the absorbance difference obtained at the well in which each test compound was added, the cell viability (% viability) after treatment with the test compound was calculated.

MV4-11 cells = assay: Growth inhibition, MTS assay, MV4-11; assay type: cell-based, Human; settings: Homo sapiens, MV4-11, 72 h, MTS cell viability, read-out: MV4-11 ED50
DYRK1 = DYRK1 (Homo sapiens (Human), UniProt Q13627); assay: ADP-Glo Kinase Assay, DYRK1; assay type: biochemical; settings: 1 μM compound; read-out: DYRK1A % INH (1 μM)
Procedure, shortened: as §1

HepG2 cells = assay: Growth inhibition, MTS assay, HepG2; assay type: cell-based, Human; settings: Homo sapiens, HepG2, 72 h, MTS cell viability, read-out: HepG2 ED50
Pim-2 = Pim-2 (Homo sapiens (Human), UniProt Q9P1W9); assay: ADP-Glo Kinase Assay, Pim-2; assay type: biochemical; settings: 1 μM compound; read-out: Pim-2 % INH (1 μM)
Sequence of Pim-2 (Q9P1W9 whole entry): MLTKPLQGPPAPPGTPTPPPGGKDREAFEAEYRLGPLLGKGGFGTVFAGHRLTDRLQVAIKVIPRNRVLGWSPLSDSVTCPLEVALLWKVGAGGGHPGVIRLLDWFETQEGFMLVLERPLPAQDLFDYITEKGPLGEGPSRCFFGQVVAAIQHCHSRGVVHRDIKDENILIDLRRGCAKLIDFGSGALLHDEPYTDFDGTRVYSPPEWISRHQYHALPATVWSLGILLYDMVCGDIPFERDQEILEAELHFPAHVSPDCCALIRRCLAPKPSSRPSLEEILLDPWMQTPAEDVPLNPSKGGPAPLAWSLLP
Procedure, shortened: as §1

HEL92 cells = assay: Growth inhibition, MTS assay, HEL92; assay type: cell-based, Human; settings: Homo sapiens, 72 h, MTS cell viability, read-out: HEL92 ED50
Pim-3 = Pim-3 (Homo sapiens (Human), UniProt Q86V86); assay: ADP-Glo Kinase Assay, Pim-3; assay type: biochemical; settings: 1 μM compound; read-out: Pim-3 % INH (1 μM)
Procedure, shortened: as §1

KG-1 cells = assay: Growth inhibition, MTS assay, KG-1; assay type: cell-based, Human; settings: 72 hours, MTS cell viability
Excerpt: as §2, §3, §4

MOLM16 cells = assay: Growth inhibition, MTS assay, MOLM16; assay type: cell-based, Human; settings: Homo sapiens, MOLM16, 72 h, MTS cell viability, read-out: MOLM 16 ED50
Excerpt: as §2, §3, §4

Jeko-1 cells = assay: Growth inhibition, MTS assay, Jeko-1; assay type: cell-based, Human; settings: Homo sapiens, JeKo-1; 72 hours, MTS cell viability; read-out: Jeko-1 ED50
FLT3-ITD = assay: ADP-Glo Kinase Assay, Flt3 ITD; assay type: biochemical, Human; settings: 1 μM compound
Method: Compounds of the present invention were tested for their inhibitory activity against Pim-1, Pim-2, Pim-3, Flt3 wt, Flt3 ITD, CDK2/E and DYRK1. The testing of the compounds was carried out using the ADP-Glo™ Kinase Assay from Promega Corporation (Madison, Wis., USA).
The ADP-Glo™ Kinase Assay is a luminescent ADP detection assay to measure kinase activity by quantifying the amount of ADP produced during a kinase reaction. The kinase assay is performed in kinase assay buffer (5 mM MOPS, pH 7.5, 5 mM MgCl2, 0.4 mM EDTA, 1.5 mM DTT). Test samples initially dissolved in DMSO at 10 mM were diluted with the assay buffer to 1000 nM. A 30 μL volume/well of a mixture of substrates containing ATP (final ATP concentration in each kinase assay was equal to its apparent ATP Km).
The assay was performed in two steps: first, after the kinase reaction, an equal volume of ADP-Glo™ Reagent was added to terminate the kinase reaction and deplete the remaining ATP. Second, the Kinase Detection Reagent was added to simultaneously convert ADP to ATP and allowed the newly synthesized ATP to be measured using a luciferase/luciferin reaction. The luminescent signal generated was proportional to the ADP concentration produced and was correlated with kinase activity. A microplate spectrophotometer (Synergy 2 multi-mode microplate reader [BioTek]) was used for detecting the luminescence. The data was normalized and the percent of inhibition was obtained according to the following equation: […]

CYP3A4 = CYP3A4 (Homo sapiens (Human), UniProt P08684); assay: Cytochrome P450 inhibition, fluorescence, CYP3A4; assay type: in vitro ADME; settings: recombinant CYP3A4, fluorescence detection; read-out: CYP inhibition (CYP 3A4 screening, IC50 class)
Sequence of CYP3A4 (P08684 whole entry, canonical isoform): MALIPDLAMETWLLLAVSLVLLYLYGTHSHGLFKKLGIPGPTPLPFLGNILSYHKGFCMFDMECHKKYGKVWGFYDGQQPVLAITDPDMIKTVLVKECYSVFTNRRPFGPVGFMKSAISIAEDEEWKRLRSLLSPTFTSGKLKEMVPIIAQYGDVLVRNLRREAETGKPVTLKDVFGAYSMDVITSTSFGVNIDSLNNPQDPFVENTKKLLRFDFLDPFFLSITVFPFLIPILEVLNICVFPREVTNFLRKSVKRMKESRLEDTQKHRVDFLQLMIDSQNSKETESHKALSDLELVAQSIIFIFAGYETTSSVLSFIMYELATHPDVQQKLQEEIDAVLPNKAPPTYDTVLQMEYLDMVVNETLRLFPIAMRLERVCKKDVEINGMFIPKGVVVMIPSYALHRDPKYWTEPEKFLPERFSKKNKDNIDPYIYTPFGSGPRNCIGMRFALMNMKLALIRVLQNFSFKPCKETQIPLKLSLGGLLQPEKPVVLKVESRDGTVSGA
Method: The assays for cytochrome P450 inhibition facilitate the identification of drug candidates with lower potential for drug-drug interactions (weak enzymes inhibitors). In vitro experiments were conducted to determine whether a drug inhibits a specific CYP enzyme. The experiments comprised the incubation of the drug with probe substrates for the CYP enzymes, wherein the following recombinant cytochrome P450 isoforms were employed: CYP1A2, CYP2C8, CYP2C9, CYP2C19, CYP2D6 and CYP3A4, together with various probe substrates enabling fluorescence detection. The protocol uses a single substrate concentration near the apparent Km and multiple compound concentrations.
The assay was performed in 96-well microtiter plates. The row designations were A through H and the column designations were 1 through 12. […] Each compound (see Table 6 for tested compounds) was added to the wells in column 1 and serially diluted to the wells in column 8. Wells 9 and 10 were control wells which contained no test compound (therefore no inhibition-full signal is detected.) The wells in columns 11 and 12 were blanks, where STOP solution was added prior to the addition of the enzyme/substrate mix to the NADPH regenerating system (the only signal present in these wells is background noise.) The assay was conducted in a final volume of 0.2 ml per well.
The stock solutions of the tested compounds were prepared in DMSO at 10 mM concentration. […] After mixing the compounds with solution containing NADPH-cofactors, the mixed plate was preincubated in a 37° C. incubator for at least 10 minutes; next, the fluorescence of compounds using recommended excitation/emission filters was measured in order to eliminate false results originating from autofluorescence of the compounds. In the following step, the enzyme/substrate mix was added to columns 1 through 10 and the plates were incubated at 37° C. for specific times depending on the CYP tested (incubation times ranged from 30 to 45 minutes). After adding STOP SOLUTION to all wells and respective enzyme/substrate mix to the wells in columns 11 and 12, the plate was scanned with a fluorescent plate scanner. The excitation/emission filters used for the specific assays are described in the GenTest Screening Kit instruction manual.

hERG potassium channel = hERG potassium channel (Homo sapiens (Human), UniProt Q12809); assay: hERG automated patch clamp assay (QPatch HT)
Sequence of hERG potassium channel (Q12809 whole entry): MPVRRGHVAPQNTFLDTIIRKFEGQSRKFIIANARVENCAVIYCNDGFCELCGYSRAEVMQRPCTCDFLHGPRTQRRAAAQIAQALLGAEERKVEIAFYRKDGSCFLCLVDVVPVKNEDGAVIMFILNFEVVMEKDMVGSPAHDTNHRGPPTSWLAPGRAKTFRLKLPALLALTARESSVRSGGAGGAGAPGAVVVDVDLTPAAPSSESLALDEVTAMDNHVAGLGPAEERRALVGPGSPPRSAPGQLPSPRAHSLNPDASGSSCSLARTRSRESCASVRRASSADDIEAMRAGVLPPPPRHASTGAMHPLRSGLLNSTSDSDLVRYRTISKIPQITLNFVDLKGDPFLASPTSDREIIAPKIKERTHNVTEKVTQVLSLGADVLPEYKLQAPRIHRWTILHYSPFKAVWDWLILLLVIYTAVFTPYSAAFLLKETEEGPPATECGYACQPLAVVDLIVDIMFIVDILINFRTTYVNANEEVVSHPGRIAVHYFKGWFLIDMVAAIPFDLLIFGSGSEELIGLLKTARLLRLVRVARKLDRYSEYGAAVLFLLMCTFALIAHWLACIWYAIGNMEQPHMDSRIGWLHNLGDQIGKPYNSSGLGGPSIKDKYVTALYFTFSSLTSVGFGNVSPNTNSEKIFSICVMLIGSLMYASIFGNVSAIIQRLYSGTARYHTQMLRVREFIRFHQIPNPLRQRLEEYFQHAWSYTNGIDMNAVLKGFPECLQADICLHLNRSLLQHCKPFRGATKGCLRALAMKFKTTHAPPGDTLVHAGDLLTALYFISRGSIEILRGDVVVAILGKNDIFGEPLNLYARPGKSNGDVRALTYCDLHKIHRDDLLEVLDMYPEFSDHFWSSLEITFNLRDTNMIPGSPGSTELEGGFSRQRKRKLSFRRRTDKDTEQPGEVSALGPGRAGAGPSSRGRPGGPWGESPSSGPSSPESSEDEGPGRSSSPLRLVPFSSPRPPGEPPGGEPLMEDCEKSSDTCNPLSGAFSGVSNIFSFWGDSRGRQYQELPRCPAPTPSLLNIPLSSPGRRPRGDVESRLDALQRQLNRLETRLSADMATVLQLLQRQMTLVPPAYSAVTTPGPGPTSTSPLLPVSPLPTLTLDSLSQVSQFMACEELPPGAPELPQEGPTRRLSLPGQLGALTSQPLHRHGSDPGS
Procedure, shortened: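 Automated whole-cell patch clamp of hERG current in mammalian cells at room temperature. Compounds applied at 0.1, 1, 3, 10 and 30 μM, 3 min per concentration, n≥2 cells each.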

Sequence of FLT3wt (P36888 27-993): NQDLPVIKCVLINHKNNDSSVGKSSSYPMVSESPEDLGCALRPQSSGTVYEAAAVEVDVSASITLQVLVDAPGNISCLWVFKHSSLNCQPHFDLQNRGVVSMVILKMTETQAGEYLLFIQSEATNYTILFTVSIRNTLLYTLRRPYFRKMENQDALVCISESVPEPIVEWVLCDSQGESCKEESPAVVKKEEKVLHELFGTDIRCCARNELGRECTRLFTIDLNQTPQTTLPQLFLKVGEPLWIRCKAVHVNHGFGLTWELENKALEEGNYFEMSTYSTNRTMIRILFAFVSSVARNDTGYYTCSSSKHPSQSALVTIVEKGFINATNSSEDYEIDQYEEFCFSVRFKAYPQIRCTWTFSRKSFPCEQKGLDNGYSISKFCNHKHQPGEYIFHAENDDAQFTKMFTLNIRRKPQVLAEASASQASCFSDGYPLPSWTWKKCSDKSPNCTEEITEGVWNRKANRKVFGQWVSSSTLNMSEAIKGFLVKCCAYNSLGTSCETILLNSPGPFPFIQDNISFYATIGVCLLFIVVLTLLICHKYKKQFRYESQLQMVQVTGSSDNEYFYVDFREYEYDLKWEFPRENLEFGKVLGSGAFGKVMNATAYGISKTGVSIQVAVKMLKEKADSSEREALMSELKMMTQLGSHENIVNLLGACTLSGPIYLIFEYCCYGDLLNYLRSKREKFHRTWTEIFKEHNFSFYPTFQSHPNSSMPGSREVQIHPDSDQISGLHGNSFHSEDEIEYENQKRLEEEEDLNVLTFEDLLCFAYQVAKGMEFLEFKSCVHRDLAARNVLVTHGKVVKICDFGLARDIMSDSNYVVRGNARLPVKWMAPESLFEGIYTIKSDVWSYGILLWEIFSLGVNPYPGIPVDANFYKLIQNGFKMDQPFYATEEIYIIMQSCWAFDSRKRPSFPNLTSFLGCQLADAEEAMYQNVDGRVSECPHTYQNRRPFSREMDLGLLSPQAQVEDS

SMILES	inhibition at 1 µM (FLT3wt) [%]	inhibition at 1 µM (Pim-1) [%]	inhibition at 1 µM (CDK2/E) [%]	IC50 (MOLM13 cells) [nM]	IC50 (MV4-11 cells) [nM]	inhibition at 1 µM (DYRK1) [%]	IC50 (HepG2 cells) [nM]	inhibition at 1 µM (Pim-2) [%]	IC50 (HEL92 cells) [nM]	inhibition at 1 µM (Pim-3) [%]	KG-1 ED50 (KG-1 cells) [nM]	IC50 (MOLM16 cells) [nM]	IC50 (Jeko-1 cells) [nM]	Flt3ITD % INH (1 μM) (FLT3-ITD) [%]	IC50 (CYP3A4) [nM]	IC50 (hERG potassium channel) [nM]
CC(C)n1c(N2CCNCC2)nc2c(C#N)c(Br)c(Br)cc21 [Example 1BL]	54	> 95	7	1000	400	75	1400	33	2400	81	–	–	–	–	–	–
CC(C)n1c(NC2CCC(N)CC2)nc2c(C#N)c(Br)c(Br)cc21 (stereo not shown) [Example 1DY]	< 5	> 95	7	6400	2300	20	–	18	–	62	1900	1100	2800	–	–	–
CC(C)n1c(NCCOCCN)nc2c([N+](=O)[O-])c(Br)c(Br)cc21 [Example 22J, N-[2-(2-aminoethoxy)ethyl]-5,6-dibromo-4-nitro-1-(propan-2-yl)-1H-1,3-benzodiazol-2-amine]	< 5	> 95	< 5	–	2800	16	4700	31	–	79	–	–	–	5	3300 to 10000	11900
CCn1c(N2CC[C@H](N)C2)nc2c(C#N)c(Br)c(Br)cc21 [Example 1DR]	18	> 95	28	3900	1000	65	1200	59	6200	91	140	100	1300	50	–	–
